According to patent US7468380B2, “Nitrogen-containing aromatic derivatives” (Eisai R&D Management Co., Ltd., priority 2002, dated 2008):

Tested on: VEGF high-expressing pancreatic cancer cells (KP-1/VEGF)
Experiment: Antitumor activity on KP-1/VEGF cells in subcutaneous xenograft models
Format: in vivo, mouse
Details: 60 mg/kg/day, oral twice a day, 2 weeks, Balb/c (nu/nu) mice
Protocol: VEGF high-expressing pancreatic cancer cells (KP-1/VEGF) suspended in PBS at a concentration of 1×10^7 cells/ml were transplanted under the right flank skin of 6-week-old female Balb/c (nu/nu) mice in a volume of 0.1 ml. When the tumor volume reached approximately 100 mm^3, the test substance was orally administered twice a day over a period of 2 weeks with a schedule of 5 days per week. The test substance was suspended in 0.5% methyl cellulose for an administered volume of 0.1 ml/10 g body weight. The tumor size was measured twice a week using a micrometer caliper. The tumor volume was determined by measuring the long and short diameters of the tumor with a micrometer caliper, and calculating ½×(long diameter×short diameter×short diameter). The experiment was conducted using 10 mice in the control (solvent-administered) group and 5 mice in each test substance-administered group.

CNC(=O)n1ccc2cc(Oc3ccnc(NC(=O)N4CCC(N5CCCC5)CC4)c3)ccc21 [Example 46, N1-Methyl-5-(2-(((4-(pyrrolidin-1-yl)piperidin-1-yl)carbonyl)amino)pyridin-4-yloxy)-1H-1-indolecarboxamide]
proportion of the tumor volume to that of control: 60.0%
